From article PMC7751951 (Cancer chemotherapy and pharmacology, 2015)

Columns and labels:
[1] = Toxicity, DLT and MTD in phase I trial
[2] = single-agent docetaxel 150–235 mg/m^2, children and adolescents with refractory solid tumors; cited from earlier work
[3] = tested on: recurrent or refractory solid tumors; assay: Tumor response; type: in vivo, human (children and adolescents)
[4] = early clinical trials in adults; cited from earlier work
[5] = adults, 2 mg/kg IV over 30 min; cited from earlier work
[6] = human, in vivo, 21 days
[7] = tested on: ATPase activity of the Pgp drug efflux pump; details: introduction statement, no reference given; cited from earlier work
[8] = Plasma pharmacokinetics of tariquidar alone; type: in vivo, human (children and adolescents); details: human, intravenous, tariquidar in combination with chemotherapy, at all dose levels
[9] = tested on: Breast Cancer Resistance Protein (BCRP/ABCG2); details: cited from earlier work
Pgp = details: adults, 2 mg/kg IV over 30 min; rhodamine uptake in CD56+ lymphocytes; cited from earlier work
[10] = cited from earlier work

## CC(=O)O[C@@]12CO[C@@H]1C[C@H](O)[C@@]1(C)C(=O)[C@H](O)C3=C(C)[C@@H](OC(=O)[C@H](O)[C@@H](NC(=O)OC(C)(C)C)c4ccccc4)C[C@@](O)([C@@H](OC(=O)c4ccccc4)[C@H]21)C3(C)C [Docetaxel]
[1]; docetaxel in combination with tariquidar, three of nine participants
  participants with grade 3 thrombocytopenia (platelet count ≥10,000, <50,000/μL): 33%
[2]
  platelet counts less than 50,000/μL: not observed

## COc1cccc2c1C(=O)c1c(O)c3c(c(O)c1C2=O)C[C@@](O)(C(=O)CO)C[C@@H]3O[C@H]1C[C@H](N)[C@H](O)[C@H](C)O1 [Doxorubicin]
[3]; person, metastatic adrenocortical carcinoma, two cycles of tariquidar in combination with doxorubicin
  Response: partial response
[3]; subject 014, rhabdomyosarcoma, with tariquidar 2 mg/kg
  Best response [cycle]: partial response
[4]
  increase of systemic exposure in combination with tariquidar: 26%

## COc1cc2c(cc1OC)CN(CCc1ccc(NC(=O)c3cc(OC)c(OC)cc3NC(=O)c3cnc4ccccc4c3)cc1)CC2 [Tariquidar]
[5]
  area under the concentration time curve (AUC0–48): 12.6 µM·h
  clearance: 160 mL/min/m^2
  half-life: 26 h
[1]; escalation up to 2 mg/kg
  maximum tolerated dose of tariquidar: No maximum tolerated dose was achieved
[6]
  tariquidar-related dysgeusia (n = 3), grade: 1
  tariquidar-related hypotension (n = 2), grade: 2
  tariquidar-related nausea (n = 1), grade: 1
  tariquidar-related peripheral edema (n = 1), grade: 2
  tariquidar-related pruritus (n = 1), grade: 1
[7]
  effect on ATPase activity of the Pgp drug efflux pump: inhibits
[8]
  Cmax: > 2000 nM
[9]
  inhibition of Breast Cancer Resistance Protein (BCRP/ABCG2): inhibit
Pgp
  time for which maximum inhibition of Pgp was maintained: 24 h
[10]
  tolerability in adults: well tolerated

## CCC1=C[C@@H]2CN(C1)Cc1c([nH]c3ccccc13)[C@@](C(=O)OC)(c1cc3c(cc1OC)N(C)[C@H]1[C@@](O)(C(=O)OC)[C@H](OC(C)=O)[C@]4(CC)C=CCN5CC[C@]31[C@@H]54)C2 [Vinorelbine]
[3]; subject 009, pancreatoblastoma, with tariquidar 1.5 mg/kg
  Best response [cycle]: complete radiographic response
[4]
  change in pharmacokinetics in combination with tariquidar: No change

## CC(=O)O[C@H]1C(=O)[C@@]2(C)[C@H]([C@H](OC(=O)c3ccccc3)[C@]3(O)C[C@H](OC(=O)[C@H](O)[C@@H](NC(=O)c4ccccc4)c4ccccc4)C(C)=C1C3(C)C)[C@]1(OC(C)=O)CO[C@@H]1C[C@@H]2O [paclitaxel]
[4]
  increase of systemic exposure in combination with tariquidar: 44%
